Results published in the supplement of paper PMC10307832.

Columns and labels:
Assay in all cases: relative viability (nuclei count vs DMSO), 5 days (fraction); higher = more cells survive
Kobe2602 + Linsitinib = compound: C1=CC(=CC=C1NC(=S)NNC2=C(C=C(C=C2[N+](=O)[O-])C(F)(F)F)[N+](=O)[O-])F [Kobe2602] + C[C@]1(O)C[C@@H](c2nc(-c3ccc4ccc(-c5ccccc5)nc4c3)c3c(N)nccn32)C1 [Linsitinib] (partner 1 µM)
Outline: (§1)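 One day after seeding in 1536-well plates, lung cancer cell lines were dosed by pin tool. Dosing was either single-drug or a fixed anchor-drug dose plus five library-drug doses (not always all listed) in √10 steps. After 5 days, nuclei were stained in one fix-and-stain step and counted on 4× images, and relative viability is the nuclei count of treated wells over that of vehicle wells, given as the median of duplicate plates.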

Cabozantinib + OSI-027 = compound: COc1cc2nccc(Oc3ccc(NC(=O)C4(C(=O)Nc5ccc(F)cc5)CC4)cc3)c2cc1OC [Cabozantinib] + COc1cccc2cc(-c3nc([C@H]4CC[C@H](C(=O)O)CC4)n4ncnc(N)c34)[nH]c12 [OSI-027] (partner 0.5 µM)
Outline: as §1

Zosuquidar + Foretinib = compound: O[C@@H](COc1cccc2ncccc12)CN1CCN([C@@H]2c3ccccc3[C@@H]3[C@H](c4ccccc42)C3(F)F)CC1 [Zosuquidar] + COc1cc2c(Oc3ccc(NC(=O)C4(C(=O)Nc5ccc(F)cc5)CC4)cc3F)ccnc2cc1OCCCN1CCOCC1 [Foretinib] (partner 0.25 µM)
Outline: as §1

Kobe2602 + Decitabine = compound: C1=CC(=CC=C1NC(=S)NNC2=C(C=C(C=C2[N+](=O)[O-])C(F)(F)F)[N+](=O)[O-])F [Kobe2602] + Nc1ncn([C@H]2C[C@H](O)[C@@H](CO)O2)c(=O)n1 [Decitabine] (partner 2 µM)
Outline: as §1

UMC-11
relative viability (Kobe2602 + Linsitinib; first compound 0.2 µM): 1 | relative viability (Kobe2602 + Linsitinib; first compound 0.6325 µM): 1.06 | relative viability (Kobe2602 + Linsitinib; first compound 2 µM): 0.997 | relative viability (Kobe2602 + Linsitinib; first compound 6.325 µM): 0.996 | relative viability (Kobe2602 + Linsitinib; first compound 20 µM): 0.947 | relative viability (Cabozantinib + OSI-027; first compound 0.02 µM): 0.45 | relative viability (Cabozantinib + OSI-027; first compound 0.06325 µM): 0.49 | relative viability (Cabozantinib + OSI-027; first compound 0.2 µM): 0.518 | relative viability (Cabozantinib + OSI-027; first compound 0.6325 µM): 0.547 | relative viability (Cabozantinib + OSI-027; first compound 2 µM): 0.432 | relative viability (Zosuquidar + Foretinib; first compound 0.01 µM): 1.07 | relative viability (Zosuquidar + Foretinib; first compound 0.03162 µM): 1.01 | relative viability (Zosuquidar + Foretinib; first compound 0.1 µM): 1.19 | relative viability (Zosuquidar + Foretinib; first compound 0.3162 µM): 1.12 | relative viability (Zosuquidar + Foretinib; first compound 1 µM): 0.987 | relative viability (Kobe2602 + Decitabine; first compound 0.2 µM): 0.564 | relative viability (Kobe2602 + Decitabine; first compound 0.6325 µM): 0.622 | relative viability (Kobe2602 + Decitabine; first compound 2 µM): 0.675 | relative viability (Kobe2602 + Decitabine; first compound 6.325 µM): 0.466 | relative viability (Kobe2602 + Decitabine; first compound 20 µM): 0.652
